Experimental data: publication PMC5609566, “Elucidation of antimicrobial activity and mechanism of action by N-substituted carbazole derivatives” (Bioorganic & Medicinal Chemistry Letters, 2017)
Values after ≈ are worked out from the molar mass of the structure shown. Like-named read-outs stand apart in the source and are kept apart here.

How the values were obtained:
[1] = system: Saccharomyces cerevisiae ATCC 9763; assay: Fungal growth inhibition MIC (MFC); type: cell-based; conditions: ATCC9763; for MIC: Saccharomyces cerevisiae ATCC 9763, RPMI-1640; for MFC: Saccharomyces cerevisiae ATCC 9763, value in brackets
Source text: (§1) We subsequently assessed the carbazole series for antifungal activity, as described in Kjellerup et al., 2017.[15] Table 2, Table 3, Table 4, Table 5 list the minimum inhibitory concentrations (MIC) and the minimum fungicidal concentrations (MFC) of the fifteen compounds tested against the yeasts Saccharomyces cerevisiae, Candida albicans, C. krusei, and two isolates of C. glabrata (a wild-type strain ATCC 90030 and a clinical azole-resistant isolate Cg003 with increased efflux pump expression[19]), and the molds Aspergillus fumigatus and A. flavus. MIC was defined as the lowest concentration inhibiting visual growth of the microorganism in RPMI-1640 media. […] However, in several cases antifungal activity against molds was minimal, Table 5.
(§2) Compound hits from the library screening were evaluated against baker yeast S. cerevisiae and C. albicans (ATCC 90028). The minimum inhibitory concentration (MIC) was defined as the lowest concentration inhibiting visual growth of the microorganism and this was determined in triplicate. Standard errors were typically less than 5%. MICs for synthesized compounds were determined on the following fungal isolates: Saccharomyces cerevisiae (ATCC 9763), Candida albicans (SC5314), Candida krusei (ATCC 6258), Candida glabrata (ATCC 90030), Aspergillus flavus (ATCC MYA-1005) and Aspergillus fumigatus (ATCC 13073), which were purchased from American Type Culture Collection, and C. glabrata strain Cg003, which was kindly provided by Julius Subik, Comenius University in Bratislava, Slovak Republic. Cg003 is a clinical isolate, characterized to be resistant to fluconazole and itraconazole due to overexpression of the multidrug resistance efflux pumps Cdr1p and Cdr2p^5. The fungal growth assay was performed as described in Kjellerup et al., 2017^6.

Candida krusei ATCC 6258 = assay: Fungal growth inhibition MIC (MFC); type: cell-based; conditions: Pichia kudriavzevii, ATCC6258; for MIC: Candida krusei ATCC 6258, RPMI-1640; for MFC: Candida krusei ATCC 6258, value in brackets
Source text: as §1, §2

Candida albicans SC5314 = assay: Fungal growth inhibition MIC (MFC); type: cell-based; conditions: for MIC: Candida albicans SC5314, RPMI-1640; for MFC: Candida albicans SC5314, value in brackets
Source text: as §1, §2

Candida glabrata Cg003 = assay: Fungal growth inhibition MIC (MFC); type: cell-based; conditions: Nakaseomyces glabratus, Candida glabrata Cg003 (clinical azole-resistant isolate); for MIC: RPMI-1640; for MFC: value in brackets
Source text: as §1, §2

C. albicans H^+-ATPase = biological target: T1, C. albicans H^+-ATPase (Candida albicans, UniProt P28877); assay: Colorimetric ATPase assay (ATP hydrolysis), C. albicans membranes; type: biochemical; conditions: pH 7, n = 3
T1 construct: endogenous in cells; host or cells: C. albicans culture grown in YPD; microsomal membrane preparation
Source text: (§3) To investigate the H^+-ATPase inhibitory effect of the compounds we isolated plasma membranes containing H^+-ATPase from S. cerevisiae and C. albicans cells.[15] Plasma membranes isolated from pig kidney as well as endoplasmic reticulum membranes from rabbit hind leg muscle were used to counter-screen compounds for activity against mammalian Na^+,K^+-ATPase and Ca^2+-ATPase, respectively. Prior to their use, fungal plasma membrane batches were validated by determining the maximum ATP hydrolysis activity, the pH optimum of the ATPase activity, and the sensitivity to inhibition by orthovanadate. ATPase activity was determined by a colorimetric assay that measures the amount of inorganic phosphate liberated over time, as described in Kjellerup et al., 2017.[15] Table 2, Table 3, Table 4 list the IC50 values obtained by measuring the concentration dependence of the ATPase activity for the fifteen carbazole compounds with each of the four membrane preparations.
(§4) Pma1-containing plasma membranes were prepared from S. cerevisiae RS72 yeast cells that had been transformed with the full-length cDNA of the S. cerevisiae plasma membrane H^+-ATPase isoform PMA1 under control of the PMA1 promoter, using the same procedure as described in Kongstad et al., 2014^1. For the preparation of C. albicans membranes, a 100 ml overnight culture grown in YPD (10 g/L yeast extract (BD, Sparks, MD), 20 g/L Bacto peptone (BD), 20 g/L D-(+)-glucose) was transferred to 1 L YPD and grown for a further 7 h at RT with agitation (150 rpm), followed by cell harvesting and subsequent membrane preparation using the same procedure as described in Kongstad et al., 2014^1. […] Rabbit sarcoplasmic reticulum membranes containing Sarco/Endoplasmic Reticulum Ca^2+ ATPase (SERCA) were kindly provided by Dr. Claus E. Olesen and Dr. Jesper V. Møller, Aarhus University and prepared as described in Andersen et al., 1985^2. Pig kidney Na^+,K^+-ATPase was kindly provided by Dr. Natalya Fedosova, Aarhus University and prepared as described in Klodos et al., 2002^3.
(§5) The compound libraries were purchased from Enamine Ltd, Ukraine and Chembridge Corp, USA. ATPase activity was determined by measuring the amount of liberated phosphate from ATP hydrolysis. […] Reactions were initiated by the addition of Na-ATP to a final concentration of 2.5 mM (Pma1 and Na^+,K^+-ATPase) or 5 mM (SERCA), followed by 30 minutes incubation at 30 °C. The amount of liberated phosphate was determined colorimetrically after addition of STOP solution (mixture of L-ascorbic acid, ammonium heptamolybdate tetrahydrate, and HCl to give final concentrations of 65 mM, 2.2 mM, and 189 mM, respectively) with 5 minutes incubation at room temperature (RT) followed by addition of arsenite solution (mixture of NaAsO2, sodium citrate dihydrate, and acetic acid to give final concentrations of 3.1 mM, 28 mM, and 141 mM, respectively). Absorption was measured at 860 nm after an additional 30 minutes incubation at RT.

Mammalian Ca^2+-ATPase = biological target: T2, Mammalian Ca^2+-ATPase (Oryctolagus cuniculus, UniProt P04191); assay: Colorimetric ATPase assay, rabbit sarcoplasmic reticulum membranes (SERCA); type: biochemical
T2 construct: from tissue; host or cells: rabbit hind leg muscle, sarcoplasmic reticulum membranes (gift, Aarhus University)
Source text: as §3, §4, §5

[2] = system: Aspergillus flavus ATCC MYA-1005; assay: Mold growth inhibition; type: cell-based; conditions: Aspergillus flavus ATCC MYA-1005, n=3; read-out: Fungal Growth Inhibition MIC
Source text: as §1, §2

[3] = system: Aspergillus fumigatus ATCC 13073; assay: Mold growth inhibition; type: cell-based; conditions: ATCC13073; Aspergillus fumigatus ATCC 13073, n=3; read-out: Fungal Growth Inhibition MIC
Source text: as §1, §2

[4] = biological target: T3, Mammalian Na^+,K^+-ATPase (Sus scrofa, UniProt P05024); assay: Colorimetric ATPase assay, pig kidney membranes; type: biochemical; conditions: for IC50: pH 7, n = 3, read-out: ATP hydrolysis IC50 Mammalian Na^+,K^+-ATPase; for selectivity among the four ATPases: lower IC50 value on Na^+,K^+-ATPase
T3 construct: from tissue; host or cells: pig kidney plasma membranes (gift, Aarhus University; prepared per Klodos et al., 2002)
Source text: as §3, §4, §5

S. cerevisiae H^+-ATPase = biological target: T4, S. cerevisiae H^+-ATPase (Saccharomyces cerevisiae, UniProt P05030); assay: Colorimetric ATPase assay (ATP hydrolysis), S. cerevisiae plasma membranes; type: biochemical; conditions: for IC50: pH 7, n = 3
T4 construct: transformed with the full-length cDNA of the S. cerevisiae plasma membrane H^+-ATPase isoform PMA1; made in house; host or cells: S. cerevisiae RS72
Source text: as §3, §4, §5

T4 sequence (P05030 whole entry, canonical isoform): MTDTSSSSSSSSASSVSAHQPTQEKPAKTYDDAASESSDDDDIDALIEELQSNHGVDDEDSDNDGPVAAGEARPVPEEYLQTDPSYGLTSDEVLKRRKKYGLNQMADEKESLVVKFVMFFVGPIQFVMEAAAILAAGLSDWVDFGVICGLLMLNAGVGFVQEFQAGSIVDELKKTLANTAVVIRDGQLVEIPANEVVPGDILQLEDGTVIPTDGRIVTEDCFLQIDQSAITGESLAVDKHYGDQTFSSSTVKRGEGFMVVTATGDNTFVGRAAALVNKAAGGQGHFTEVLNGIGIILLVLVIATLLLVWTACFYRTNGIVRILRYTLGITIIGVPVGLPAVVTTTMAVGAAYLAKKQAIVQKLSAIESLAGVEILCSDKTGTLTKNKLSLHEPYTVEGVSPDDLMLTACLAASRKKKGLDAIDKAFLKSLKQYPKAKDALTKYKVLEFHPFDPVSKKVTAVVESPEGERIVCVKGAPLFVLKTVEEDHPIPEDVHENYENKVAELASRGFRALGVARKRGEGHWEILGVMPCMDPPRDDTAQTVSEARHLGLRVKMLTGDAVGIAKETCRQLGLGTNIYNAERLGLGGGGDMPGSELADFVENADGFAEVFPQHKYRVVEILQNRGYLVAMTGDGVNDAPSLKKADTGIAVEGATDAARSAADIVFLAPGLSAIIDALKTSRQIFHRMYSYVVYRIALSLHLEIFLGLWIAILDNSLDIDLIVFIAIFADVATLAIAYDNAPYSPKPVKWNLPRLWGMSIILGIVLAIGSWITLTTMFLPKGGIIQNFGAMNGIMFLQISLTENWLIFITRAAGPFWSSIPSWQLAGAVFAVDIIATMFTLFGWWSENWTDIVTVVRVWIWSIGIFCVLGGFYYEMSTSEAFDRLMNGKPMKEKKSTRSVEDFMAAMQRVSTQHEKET
T1 sequence (P28877 whole entry): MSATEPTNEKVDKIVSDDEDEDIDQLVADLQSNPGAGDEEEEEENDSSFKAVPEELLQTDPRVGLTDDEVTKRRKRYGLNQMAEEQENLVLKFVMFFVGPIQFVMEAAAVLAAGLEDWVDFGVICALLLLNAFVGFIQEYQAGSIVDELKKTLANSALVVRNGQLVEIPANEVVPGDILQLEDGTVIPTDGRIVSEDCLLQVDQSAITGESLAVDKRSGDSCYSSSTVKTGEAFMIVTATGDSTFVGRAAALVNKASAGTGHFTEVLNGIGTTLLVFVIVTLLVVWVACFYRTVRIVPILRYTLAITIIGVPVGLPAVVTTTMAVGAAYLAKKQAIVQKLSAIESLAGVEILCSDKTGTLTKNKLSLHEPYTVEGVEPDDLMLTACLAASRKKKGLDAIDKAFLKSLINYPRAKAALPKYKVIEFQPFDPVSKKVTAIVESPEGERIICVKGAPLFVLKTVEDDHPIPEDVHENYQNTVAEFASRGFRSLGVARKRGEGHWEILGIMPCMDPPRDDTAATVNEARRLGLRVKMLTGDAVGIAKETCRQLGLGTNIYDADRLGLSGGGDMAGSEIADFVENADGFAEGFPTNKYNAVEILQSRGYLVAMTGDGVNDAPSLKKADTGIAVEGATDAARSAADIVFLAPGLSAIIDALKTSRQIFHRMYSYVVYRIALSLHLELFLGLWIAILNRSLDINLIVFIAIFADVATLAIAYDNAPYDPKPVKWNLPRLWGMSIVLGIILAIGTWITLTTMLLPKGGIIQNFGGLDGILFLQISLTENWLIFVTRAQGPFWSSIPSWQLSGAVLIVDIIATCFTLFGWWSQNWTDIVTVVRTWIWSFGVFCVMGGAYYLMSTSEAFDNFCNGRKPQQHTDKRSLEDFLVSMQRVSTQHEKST
T2 sequence (P04191 1-994 isoform P04191-2): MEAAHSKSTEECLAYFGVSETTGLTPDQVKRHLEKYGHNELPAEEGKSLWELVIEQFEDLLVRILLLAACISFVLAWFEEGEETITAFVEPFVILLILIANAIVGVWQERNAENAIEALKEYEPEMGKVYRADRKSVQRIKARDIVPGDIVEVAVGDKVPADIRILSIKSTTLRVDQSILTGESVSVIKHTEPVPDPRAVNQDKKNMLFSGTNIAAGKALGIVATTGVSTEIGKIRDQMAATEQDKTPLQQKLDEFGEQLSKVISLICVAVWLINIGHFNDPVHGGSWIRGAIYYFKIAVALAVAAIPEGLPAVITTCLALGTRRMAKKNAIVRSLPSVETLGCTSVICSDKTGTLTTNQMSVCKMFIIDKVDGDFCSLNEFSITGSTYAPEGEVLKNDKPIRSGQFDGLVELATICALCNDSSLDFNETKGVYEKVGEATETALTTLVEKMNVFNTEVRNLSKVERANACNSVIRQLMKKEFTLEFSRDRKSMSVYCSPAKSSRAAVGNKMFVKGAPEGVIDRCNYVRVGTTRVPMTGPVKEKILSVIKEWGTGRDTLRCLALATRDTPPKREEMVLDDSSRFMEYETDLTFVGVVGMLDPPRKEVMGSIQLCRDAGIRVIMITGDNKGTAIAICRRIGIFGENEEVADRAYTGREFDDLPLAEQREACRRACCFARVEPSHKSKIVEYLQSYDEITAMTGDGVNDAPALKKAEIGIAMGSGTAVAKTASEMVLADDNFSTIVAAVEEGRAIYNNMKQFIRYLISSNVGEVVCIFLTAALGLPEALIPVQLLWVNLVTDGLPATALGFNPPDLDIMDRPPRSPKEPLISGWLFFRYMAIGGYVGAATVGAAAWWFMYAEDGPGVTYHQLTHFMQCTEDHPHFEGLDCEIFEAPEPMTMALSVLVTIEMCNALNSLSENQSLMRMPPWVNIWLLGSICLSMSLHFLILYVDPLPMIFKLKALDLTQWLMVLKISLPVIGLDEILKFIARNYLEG

Row | Compound | MIC [1] [µM] | MFC [1] [µM] | MIC (Candida krusei ATCC 6258) [µM] | MFC (Candida krusei ATCC 6258) [µM] | MIC (Candida albicans SC5314) [µM] | MFC (Candida albicans SC5314) [µM] | MIC (Candida glabrata Cg003) [µM] | MFC (Candida glabrata Cg003) [µM] | IC50 (C. albicans H^+-ATPase) [µM] | IC50 (Mammalian Ca^2+-ATPase) [µM] | MIC [2] [µM] | MIC [3] [µM] | IC50 [4] [µM] | IC50 (S. cerevisiae H^+-ATPase) [µM] | potency on the Ca^2+-ATPase versus the three other pumps (Mammalian Ca^2+-ATPase) | IC50 (Mammalian Ca^2+-ATPase; pH 7, n = 3, read-out: ATP hydrolysis IC50 Mammalian Ca^2+-ATPase) [µM] | fold more potent H^+-ATPase inhibition than the parent compounds 1–4 (S. cerevisiae H^+-ATPase; IC50 ratio) | selectivity among the four ATPases [4]
1 | CN1CCN(CC(O)Cn2c3ccc(Cl)cc3c3cc(Cl)ccc32)CC1 (stereo not drawn) [Compound 8, 1-(3,6-dichloro-9H-carbazol-9-yl)-3-(4-methylpiperazin-1-yl)propan-2-ol] | 7.5 (≈ 2.94 µg/mL) | 7.5 (≈ 2.94 µg/mL) | 75 (≈ 29.4 µg/mL) | > 75 | 68 (≈ 26.7 µg/mL) | 75 (≈ 29.4 µg/mL) | 58 (≈ 22.8 µg/mL) | 75 (≈ 29.4 µg/mL) | 26.4 ± 2.5 | 36.8 ± 12.2 | > 75 | 75 (≈ 29.4 µg/mL) | 9.7 ± 3.3 | 52.7 ± 10.6 |  |  |  | 
2 | CN1CCN(CCCn2c3ccc(Cl)cc3c3cc(Cl)ccc32)CC1 [Compound 16, 3,6-dichloro-9-(3-(4-methylpiperazin-1-yl)propyl)-9H-carbazole] | 2.4 (≈ 0.903 µg/mL) | 2.4 (≈ 0.903 µg/mL) | 7.5 (≈ 2.82 µg/mL) | 7.5 (≈ 2.82 µg/mL) | 24 (≈ 9.03 µg/mL) | 24 (≈ 9.03 µg/mL) | 7.5 (≈ 2.82 µg/mL) | 7.5 (≈ 2.82 µg/mL) | 7.1 ± 0.5 | 23.2 ± 6.4 | 24 (≈ 9.03 µg/mL) | 41 (≈ 15.4 µg/mL) | 2.5 ± 0.6 | 20 ± 1 |  |  |  | 
3 | Clc1ccc2c(c1)c1cc(Cl)ccc1n2CCCN1CCOCC1 [Compound 18, 4-(3-(3,6-dichloro-9H-carbazol-9-yl)propyl)morpholine] | > 75 | > 75 | > 75 | > 75 | > 75 | > 75 | > 75 | > 75 | 5.9 ± 1.7 | 70.9 ± 8.4 | > 75 | > 75 | 7.7 ± 3.1 | 11.1 ± 3.8 | much less potent on the Ca^2+-ATPase than the three other pumps |  |  | 
4 | CN(C)CCCCn1c2ccc(Cl)cc2c2cc(Cl)ccc21 [Compound 15] | 2.4 (≈ 0.805 µg/mL) | 5 (≈ 1.68 µg/mL) | 7.5 (≈ 2.51 µg/mL) | 16 (≈ 5.36 µg/mL) | 24 (≈ 8.05 µg/mL) | 24 (≈ 8.05 µg/mL) | 7.5 (≈ 2.51 µg/mL) | 24 (≈ 8.05 µg/mL) | 31.1 ± 4.8 | 17.5 ± 11.4 | 75 (≈ 25.1 µg/mL) | 24 (≈ 8.05 µg/mL) | 5.1 ± 0.8 | 51.8 ± 0.5 |  |  |  | 
5 | CCC(C)NCC(O)Cn1c2ccc(Cl)cc2c2cc(Cl)ccc21 (stereo not drawn) [Compound 10, 1-(sec-butylamino)-3-(3,6-dichloro-9H-carbazol-9-yl)propan-2-ol] | 0.4 (≈ 0.146 µg/mL) | 1.2 (≈ 0.438 µg/mL) | 2.9 (≈ 1.06 µg/mL) | 3.8 (≈ 1.39 µg/mL) | 3.7 (≈ 1.35 µg/mL) | 3.8 (≈ 1.39 µg/mL) | 5.6 (≈ 2.05 µg/mL) | 7.9 (≈ 2.89 µg/mL) | 1.1 ± 0.2 |  | 12 (≈ 4.38 µg/mL) | 3.7 (≈ 1.35 µg/mL) | 1 ± 0.2 | 2 ± 0.2 |  | 0.3 ± 0.1 | ca. 9 fold | 
6 | O=C(O)C1CCN(CC(O)Cn2c3ccc(Cl)cc3c3cc(Cl)ccc32)CC1 (stereo not drawn) [Compound 9, 1-(3-(3,6-dichloro-9H-carbazol-9-yl)-2-hydroxypropyl)piperidine-4-carboxylic acid] | > 75 | > 75 | > 75 | > 75 | > 75 | > 75 | > 75 | > 75 | 105 ± 13.9 | 97.6 ± 25.7 | > 75 | > 75 | 4 ± 0.7 | 107 ± 11.8 |  |  |  | pronounced selectivity towards Na^+,K^+-ATPase
7 | OC(Cn1ccnc1)Cn1c2ccc(Cl)cc2c2cc(Cl)ccc21 (stereo not drawn) [Compound 5, 1-(3,6-dichloro-9H-carbazol-9-yl)-3-(1H-imidazol-1-yl)propan-2-ol] | 24 (≈ 8.65 µg/mL) | 75 (≈ 27 µg/mL) | > 75 | > 75 | 24 (≈ 8.65 µg/mL) | > 75 | > 75 | > 75 | 19.3 ± 2.6 | 10.7 ± 2.2 | > 75 | > 75 | 20.4 ± 2.3 | 23 ± 12.3 |  |  |  | 
8 | OC(Cn1cncn1)Cn1c2ccc(Cl)cc2c2cc(Cl)ccc21 (stereo not drawn) [Compound 6, 1-(3,6-dichloro-9H-carbazol-9-yl)-3-(1H-1,2,4-triazol-1-yl)propan-2-ol] | 75 (≈ 27.1 µg/mL) | > 75 | > 75 | > 75 | 75 (≈ 27.1 µg/mL) | > 75 | > 75 | > 75 | 4 ± 1.2 | 20.3 ± 3.6 | > 75 | > 75 | 5.2 ± 0.3 | 7.4 ± 1.6 |  |  |  | 
9 | COc1ccc2c(c1)c1cc(OC)ccc1n2CC(O)CN1CCN(C)CC1 (stereo not drawn) [Compound 11, 1-(3,6-dimethoxy-9H-carbazol-9-yl)-3-(4-methylpiperazin-1-yl)propan-2-ol] | > 75 | > 75 | > 75 | > 75 | > 75 | > 75 | > 75 | > 75 | > 167 | > 167 | > 75 | > 75 | > 167 | > 167 |  |  |  | 
10 | CN1CCN(CC(O)Cn2c3ccc(C#N)cc3c3cc(C#N)ccc32)CC1 (stereo not drawn) [Compound 12, 9-(2-hydroxy-3-(4-methylpiperazin-1-yl)propyl)-9H-carbazole-3,6-dicarbonitrile] | > 75 | > 75 | > 75 | > 75 | > 75 | > 75 | > 75 | > 75 | 144 ± 14.7 | 92.7 ± 13.1 | > 75 | > 75 | 10.5 ± 1.4 | > 167 |  |  |  | pronounced selectivity towards Na^+,K^+-ATPase
